Reference: patent publication US20090105316A1, “Biphenyl Thiazole Carboxamides” (Bayer CropScience AG, priority 2004, published 2009)

Experiment: Log P determination by HPLC on a reversed-phase column (EEC Directive 79/831, Annex V.A8)
Assay type: physicochemical
Conditions: reversed-phase HPLC column (C 18); pH 2.3
Protocol: The determination of the Log P values occurred according to EEC Directive 79/831, Annex V.A8 using HPLC (High Performance Liquid Chromatography) on a reversed-phase column (C 18). Temperature: 43° C. Eluents for determination in the acidic range (pH 2.3): 0.1% aqueous phosphoric acid, acetonitrile; linear gradient of 10% acetonitrile to 90% acetonitrile. Calibration took place using unbranched alkane-2-ones (with 3 to 16 carbon atoms) with known Log P values (the Log P values were determined on the basis of the retention times by way of linear interpolation between two consecutive alkanones).

chromatographic logP	SMILES
3.98	Cc1ccc(-c2cc(C(F)(F)F)ccc2N)cc1 [4′-methyl-5-(trifluoromethyl)biphenyl-2-amine]
4.48	Cc1ccc(-c2cc(C(F)(F)F)ccc2NC(=O)c2sc(C)nc2C(F)(F)F)cc1 [Compound 1.15, 2-methyl-N-[4′-methyl-5-(trifluoromethyl)biphenyl-2-yl]-4-(trifluoromethyl)-1,3-thiazole-5-carboxamide]
